In PubChem BioAssay AID256 (DTP/NCI, 2004):
“And” between values parts separate entries of the source, which are not always exact repeats. Identical values can stand only once. Inconclusive results and toxic doses are left out. The calls were made as follows: active = survival T/C of 150% or more; inactive = T/C below 125% in these data. Residues, ends and D or L forms follow the SMILES beside them. *: point of attachment. Trt = c1ccc(C(c2ccccc2)(c2ccccc2)*)cc1; Cbz = O=C(OCc1ccccc1)*

Tested on: CD2F1 mice, L1210 leukemia ip, survival T/C
Experiment: NCI In Vivo Anticancer Drug Screen. Data for tumor model L1210 Leukemia (intraperitoneal) in CD2F1 (CDF1) mice
Conditions: higher = longer survival
Description: The antitumor activity of compounds was measured in mice bearing transplantable tumors. Survival or tumor size were measured and the results are expressed as the measurement made in the treated group (T) divided by the measurement made in the vehicle treated control group (C). The tumor model used in this assay is L1210 Leukemia (intraperitoneal) in CD2F1 (CDF1) mice

[1] = endpoint: mean survival time, dose: 100.0 mg/kg/injection, schedule: Q04DX003 (ip), vehicle: saline with Tween-80
[2] = endpoint: mean survival time, dose: 200.0 mg/kg/injection, schedule: Q04DX003 (ip), vehicle: saline with Tween-80

Measured: T/C

CCCCCCCCCCCCNC(=O)c1ccc[n+](C)c1
inactive: endpoint: mean survival time, dose: 12.5 mg/kg/injection, schedule: Q01DX009 (ip), vehicle: saline 88 % of control | endpoint: mean survival time, dose: 12.5 mg/kg/injection, schedule: Q04DX003 (ip), vehicle: saline 93 % of control | endpoint: mean survival time, dose: 25.0 mg/kg/injection, schedule: Q04DX003 (ip), vehicle: saline 97 % of control | endpoint: mean survival time, dose: 50.0 mg/kg/injection, schedule: Q04DX003 (ip), vehicle: saline 101 % of control

C(=C\c1ccccc1)/C[P+](c1ccccc1)(c1ccccc1)c1ccccc1
inactive: endpoint: mean survival time, dose: 5.0 mg/kg/injection, schedule: Q01DX009 (ip), vehicle: saline with Tween-80 98 % of control | endpoint: mean survival time, dose: 5.0 mg/kg/injection, schedule: Q04DX003 (ip), vehicle: saline with Tween-80 100 % of control | endpoint: mean survival time, dose: 10.0 mg/kg/injection, schedule: Q01DX009 (ip), vehicle: saline with Tween-80 100 % of control | endpoint: mean survival time, dose: 10.0 mg/kg/injection, schedule: Q04DX003 (ip), vehicle: saline with Tween-80 100 % of control | endpoint: mean survival time, dose: 20.0 mg/kg/injection, schedule: Q01DX009 (ip), vehicle: saline with Tween-80 94 % of control | endpoint: mean survival time, dose: 20.0 mg/kg/injection, schedule: Q04DX003 (ip), vehicle: saline with Tween-80 97 % of control

Nc1nc(N)nc(-c2ccccn2)n1
inactive: endpoint: mean survival time, dose: 50.0 mg/kg/injection, schedule: Q01DX009 (ip), vehicle: saline 112 % of control

Cc1cc(=O)cc(CC(=O)C(=O)O)o1
inactive: endpoint: mean survival time, dose: 100.0 mg/kg/injection, schedule: Q01DX009 (ip), vehicle: saline sonified 101 % of control | [1] 97 % of control | [2] 95 % of control | endpoint: mean survival time, dose: 400.0 mg/kg/injection, schedule: Q04DX003 (ip), vehicle: saline with Tween-80 97 % of control

CC(=O)On1nnc2ccccc2c1=O
inactive: endpoint: mean survival time, dose: 12.5 mg/kg/injection, schedule: Q01DX001 (ip), vehicle: distilled water + Tween-80 101 % of control | endpoint: mean survival time, dose: 25.0 mg/kg/injection, schedule: Q01DX001 (ip), vehicle: distilled water + Tween-80 100 % of control | endpoint: mean survival time, dose: 50.0 mg/kg/injection, schedule: Q01DX001 (ip), vehicle: distilled water + Tween-80 95 % of control | endpoint: mean survival time, dose: 100.0 mg/kg/injection, schedule: Q01DX001 (ip), vehicle: distilled water + Tween-80 90 % of control

O=[N+]([O-])c1ccc(Oc2c(Cl)cc(Cl)c(Cl)c2Cl)c([N+](=O)[O-])c1
inactive: endpoint: mean survival time, dose: 75.0 mg/kg/injection, schedule: Q01DX001 (ip), vehicle: other 100 % of control | endpoint: mean survival time, dose: 150.0 mg/kg/injection, schedule: Q01DX001 (ip), vehicle: other 102 % of control | endpoint: mean survival time, dose: 300.0 mg/kg/injection, schedule: Q01DX001 (ip), vehicle: other 94 % of control

CC(=O)OC1CCC2C3CCC4(C)C(C(C)CCCC(C)C)CCC4C3CC(C)(O)C2C1 (stereo unspecified)
inactive: endpoint: mean survival time, dose: 100.0 mg/kg/injection, schedule: Q01DX001 (sc), vehicle: steriod suspending solution 101 % of control | endpoint: mean survival time, dose: 200.0 mg/kg/injection, schedule: Q01DX001 (sc), vehicle: steriod suspending solution 101 % of control | endpoint: mean survival time, dose: 400.0 mg/kg/injection, schedule: Q01DX001 (sc), vehicle: steriod suspending solution 101 % of control

CC(=O)OCC1OC(n2ncnc2CBr)C(OC(C)=O)C(OC(C)=O)C1OC(C)=O (stereo unspecified)
inactive: endpoint: median survival time, dose: 12.5 mg/kg/injection, schedule: Q01DX005 (ip), vehicle: distilled water + Tween-80 108 % of control | endpoint: median survival time, dose: 25.0 mg/kg/injection, schedule: Q01DX005 (ip), vehicle: distilled water + Tween-80 97 % of control | endpoint: median survival time, dose: 50.0 mg/kg/injection, schedule: Q01DX005 (ip), vehicle: distilled water + Tween-80 104 % of control

COC(=O)C(CSC(c1ccccc1)(c1ccccc1)c1ccccc1)NC(=O)C(CC(N)=O)NC(=O)OCc1ccccc1 (stereo not drawn) (Cbz-Asn-Cys(Trt)-OMe; configuration not given here)
inactive: endpoint: median survival time, dose: 12.5 mg/kg/injection, schedule: Q01DX009 (ip), vehicle: distilled water + Tween-80 101 % of control | endpoint: median survival time, dose: 25.0 mg/kg/injection, schedule: Q01DX009 (ip), vehicle: distilled water + Tween-80 108 % of control | endpoint: median survival time, dose: 50.0 mg/kg/injection, schedule: Q01DX009 (ip), vehicle: distilled water + Tween-80 113 % of control and 107 % of control | endpoint: median survival time, dose: 100.0 mg/kg/injection, schedule: Q01DX009 (ip), vehicle: distilled water + Tween-80 114 % of control
active: endpoint: median survival time, dose: 200.0 mg/kg/injection, schedule: Q01DX009 (ip), vehicle: distilled water + Tween-80 162 % of control

CCOC(OCC)C(=O)OCC(=O)[C@]1(O)Cc2c(O)c3c(c(O)c2[C@@H](OC2CC(N)C(O)C(C)O2)C1)C(=O)c1c(OC)cccc1C3=O (stereo partly specified)
inactive: endpoint: mean survival time, dose: 0.13 mg/kg/injection, schedule: Q01DX009 (ip), vehicle: saline 104 % of control | endpoint: mean survival time, dose: 0.25 mg/kg/injection, schedule: Q01DX009 (ip), vehicle: saline 118 % of control and 107 % of control | endpoint: mean survival time, dose: 0.5 mg/kg/injection, schedule: Q01DX009 (ip), vehicle: saline 110 % of control | endpoint: mean survival time, dose: 4.0 mg/kg/injection, schedule: Q01DX009 (ip), vehicle: saline 104 % of control
active: endpoint: mean survival time, dose: 1.0 mg/kg/injection, schedule: Q01DX009 (ip), vehicle: saline 174 % of control | endpoint: mean survival time, dose: 2.0 mg/kg/injection, schedule: Q01DX009 (ip), vehicle: saline 160 % of control

Clc1cc(N2CC2)nc(N2CC2)n1
active: endpoint: mean survival time, dose: 1.41 mg/kg/injection, schedule: Q01DX009 (ip), vehicle: saline 150 % of control | endpoint: mean survival time, dose: 4.5 mg/kg/injection, schedule: Q01DX009 (ip), vehicle: saline 168 % of control
inactive: endpoint: mean survival time, dose: 0.94 mg/kg/injection, schedule: Q01DX009 (ip), vehicle: saline 122 % of control | endpoint: mean survival time, dose: 1.6 mg/kg/injection, schedule: Q01DX009 (ip), vehicle: saline 120 % of control | endpoint: mean survival time, dose: 7.5 mg/kg/injection, schedule: Q01DX009 (ip), vehicle: saline 89 % of control

O=C(CCl)Nc1cccc2c1CCCC2
inactive: endpoint: mean survival time, dose: 50.0 mg/kg/injection, schedule: Q01DX009 (ip), vehicle: saline with Tween-80 97 % of control | endpoint: mean survival time, dose: 100.0 mg/kg/injection, schedule: Q01DX009 (ip), vehicle: saline with Tween-80 94 % of control | [1] 98 % of control | endpoint: mean survival time, dose: 200.0 mg/kg/injection, schedule: Q01DX009 (ip), vehicle: saline with Tween-80 91 % of control | [2] 96 % of control

O=c1[nH]cc(N=Cc2ccccc2O)c(=O)[nH]1.[Cl][Pt]
inactive: endpoint: mean survival time, dose: 3.13 mg/kg/injection, schedule: Q04DX003 (ip), vehicle: water 96 % of control | endpoint: mean survival time, dose: 6.25 mg/kg/injection, schedule: Q04DX003 (ip), vehicle: water 96 % of control | endpoint: mean survival time, dose: 12.5 mg/kg/injection, schedule: Q04DX003 (ip), vehicle: water 97 % of control | endpoint: mean survival time, dose: 25.0 mg/kg/injection, schedule: Q04DX003 (ip), vehicle: water 108 % of control | endpoint: mean survival time, dose: 50.0 mg/kg/injection, schedule: Q04DX003 (ip), vehicle: water 102 % of control | endpoint: mean survival time, dose: 100.0 mg/kg/injection, schedule: Q04DX003 (ip), vehicle: water 100 % of control | endpoint: mean survival time, dose: 200.0 mg/kg/injection, schedule: Q04DX003 (ip), vehicle: water 108 % of control

COc1ccc2c(c1[N+](=O)[O-])CC[C@@H]1[C@@H]2CC[C@]2(C)C(=O)CC[C@@H]12
inactive: endpoint: median survival time, dose: 50.0 mg/kg/injection, schedule: Q01DX009 (ip), vehicle: saline with Tween-80 103 % of control | endpoint: median survival time, dose: 100.0 mg/kg/injection, schedule: Q01DX009 (ip), vehicle: saline with Tween-80 103 % of control | endpoint: median survival time, dose: 200.0 mg/kg/injection, schedule: Q01DX009 (ip), vehicle: saline with Tween-80 102 % of control | endpoint: median survival time, dose: 400.0 mg/kg/injection, schedule: Q01DX009 (ip), vehicle: saline with Tween-80 103 % of control | endpoint: median survival time, dose: 800.0 mg/kg/injection, schedule: Q01DX009 (ip), vehicle: saline with Tween-80 106 % of control

COCCN=C(N)C(N)=NCCOC
inactive: endpoint: mean survival time, dose: 100.0 mg/kg/injection, schedule: Q01DX009 (ip), vehicle: saline 105 % of control | endpoint: mean survival time, dose: 200.0 mg/kg/injection, schedule: Q01DX009 (ip), vehicle: saline 103 % of control | endpoint: mean survival time, dose: 400.0 mg/kg/injection, schedule: Q01DX009 (ip), vehicle: saline 102 % of control

OCC1OC(n2ccc3c2ncn2cnnc32)C(O)C1O (stereo unspecified)
inactive: endpoint: mean survival time, dose: 6.25 mg/kg/injection, schedule: Q01DX005 (ip), vehicle: water 104 % of control | endpoint: mean survival time, dose: 12.5 mg/kg/injection, schedule: Q01DX005 (ip), vehicle: water 103 % of control | endpoint: mean survival time, dose: 25.0 mg/kg/injection, schedule: Q01DX005 (ip), vehicle: water 92 % of control | endpoint: mean survival time, dose: 50.0 mg/kg/injection, schedule: Q01DX005 (ip), vehicle: water 92 % of control | endpoint: mean survival time, dose: 100.0 mg/kg/injection, schedule: Q01DX005 (ip), vehicle: water 92 % of control | endpoint: mean survival time, dose: 200.0 mg/kg/injection, schedule: Q01DX005 (ip), vehicle: water 89 % of control | endpoint: mean survival time, dose: 400.0 mg/kg/injection, schedule: Q01DX005 (ip), vehicle: water 95 % of control
